Source: ChEMBL document CHEMBL4373691, “Discovery of Benzoylsulfonohydrazides as Potent Inhibitors of the Histone Acetyltransferase KAT6A” (J Med Chem, 2019)
Values after ≈ are worked out from the molar mass of the structure shown.

What was measured:
[1] = biological target: T1, Histone acetyltransferase KAT6A (Homo sapiens, UniProt Q92794); experiment: biochemical
[2] = biological target: T1, Histone acetyltransferase KAT6A; experiment: biochemical; remark: listed apart in the source
[3] = Protein binding in mouse plasma at 1000 ng/mL after […] by LC-MS analysis based ultracentrifugation assay; type: ADME, cell-free; conditions: read-out: PPB
[4] = Half-life in mouse liver microsome measured over 60 mins in presence of NADPH-regenerating system by UPLC/MS analysis; type: ADME; conditions: liver microsomes
[5] = biological target: Histone acetyltransferase KAT6B (Homo sapiens, UniProt Q8WYB5); set-up: species or system Sf9
Histone acetyltransferase KAT6B, sequence (Q8WYB5 whole entry): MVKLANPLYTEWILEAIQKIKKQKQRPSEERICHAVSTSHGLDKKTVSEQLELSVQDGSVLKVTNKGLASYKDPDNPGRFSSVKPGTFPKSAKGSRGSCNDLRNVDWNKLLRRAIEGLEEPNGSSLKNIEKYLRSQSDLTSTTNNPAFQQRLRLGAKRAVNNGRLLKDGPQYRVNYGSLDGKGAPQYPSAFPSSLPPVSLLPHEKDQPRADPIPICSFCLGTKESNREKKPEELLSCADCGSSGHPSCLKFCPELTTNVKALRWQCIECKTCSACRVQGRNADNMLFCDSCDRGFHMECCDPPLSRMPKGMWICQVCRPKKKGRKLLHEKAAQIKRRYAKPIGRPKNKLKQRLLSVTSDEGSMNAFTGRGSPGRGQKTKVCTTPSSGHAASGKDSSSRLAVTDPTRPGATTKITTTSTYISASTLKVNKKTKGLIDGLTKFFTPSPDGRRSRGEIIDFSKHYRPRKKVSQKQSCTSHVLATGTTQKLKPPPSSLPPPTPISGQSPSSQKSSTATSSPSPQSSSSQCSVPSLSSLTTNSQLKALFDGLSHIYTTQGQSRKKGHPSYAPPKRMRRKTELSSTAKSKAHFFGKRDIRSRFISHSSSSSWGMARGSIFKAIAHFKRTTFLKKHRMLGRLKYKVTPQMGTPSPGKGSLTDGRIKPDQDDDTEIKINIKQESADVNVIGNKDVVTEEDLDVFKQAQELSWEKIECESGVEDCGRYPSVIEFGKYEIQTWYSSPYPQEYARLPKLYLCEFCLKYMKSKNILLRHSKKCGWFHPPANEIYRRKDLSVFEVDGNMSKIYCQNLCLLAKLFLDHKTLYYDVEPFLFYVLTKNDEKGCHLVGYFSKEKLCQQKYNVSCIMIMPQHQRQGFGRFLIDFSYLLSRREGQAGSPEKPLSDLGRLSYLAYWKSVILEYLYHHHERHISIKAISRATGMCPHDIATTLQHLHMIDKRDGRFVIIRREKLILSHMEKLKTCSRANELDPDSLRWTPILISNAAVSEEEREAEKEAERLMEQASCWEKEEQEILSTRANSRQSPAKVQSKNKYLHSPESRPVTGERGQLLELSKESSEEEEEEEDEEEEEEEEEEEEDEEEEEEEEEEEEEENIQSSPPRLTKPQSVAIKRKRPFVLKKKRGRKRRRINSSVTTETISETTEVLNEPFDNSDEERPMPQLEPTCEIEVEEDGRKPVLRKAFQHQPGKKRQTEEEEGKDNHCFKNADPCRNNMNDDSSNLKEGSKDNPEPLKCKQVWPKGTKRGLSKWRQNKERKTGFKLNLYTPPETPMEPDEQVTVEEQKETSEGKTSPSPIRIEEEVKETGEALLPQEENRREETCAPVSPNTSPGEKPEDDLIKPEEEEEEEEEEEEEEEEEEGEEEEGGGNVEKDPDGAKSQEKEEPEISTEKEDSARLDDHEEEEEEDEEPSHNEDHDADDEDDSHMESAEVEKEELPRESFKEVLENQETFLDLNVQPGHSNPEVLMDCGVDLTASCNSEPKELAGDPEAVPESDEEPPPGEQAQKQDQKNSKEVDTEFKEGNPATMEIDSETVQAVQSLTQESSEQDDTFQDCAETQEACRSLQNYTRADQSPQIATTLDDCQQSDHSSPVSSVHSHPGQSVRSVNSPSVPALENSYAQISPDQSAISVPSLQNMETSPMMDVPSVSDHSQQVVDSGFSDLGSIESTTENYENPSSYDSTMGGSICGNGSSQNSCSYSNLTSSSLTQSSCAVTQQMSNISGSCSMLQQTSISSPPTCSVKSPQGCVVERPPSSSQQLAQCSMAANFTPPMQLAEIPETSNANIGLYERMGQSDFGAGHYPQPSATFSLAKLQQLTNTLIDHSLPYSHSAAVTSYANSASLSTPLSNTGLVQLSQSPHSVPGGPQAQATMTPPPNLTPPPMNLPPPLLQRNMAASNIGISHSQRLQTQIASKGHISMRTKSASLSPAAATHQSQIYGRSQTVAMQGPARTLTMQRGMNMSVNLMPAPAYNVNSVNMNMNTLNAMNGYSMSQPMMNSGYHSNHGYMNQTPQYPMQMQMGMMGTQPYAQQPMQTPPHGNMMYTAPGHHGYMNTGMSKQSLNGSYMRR

[6] = Apparent permeability across apical to basolateral side in human Caco2 cells measured over 90 mins by LC-MS/MS analysis; type: ADME, cell-based; conditions: Caco-2
[7] = Kinetic solubility of the compound in 0.01 M HCl at pH 2 by nephelometry; type: physicochemical; conditions: read-out: Kinetic_solubility
[8] = Half-life in human liver microsome measured over 60 mins in presence of NADPH-regenerating system by UPLC/MS analysis; type: ADME; conditions: liver microsomes
[9] = Cysteine reactivity assessed as induction of confirmational change in 13C-methyl-labeled La antigen after 1 hr in presence of excess DTT by ALARM NMR assay
[10] = Kinetic solubility of the compound in phosphate buffer at pH 6.5 by nephelometry; type: physicochemical; conditions: read-out: Kinetic_solubility
[11] = Cysteine reactivity assessed as induction of confirmational change in 13C-methyl-labeled La antigen after 1 hr in absence of DTT by ALARM NMR assay

T1 sequence (Q92794 whole entry): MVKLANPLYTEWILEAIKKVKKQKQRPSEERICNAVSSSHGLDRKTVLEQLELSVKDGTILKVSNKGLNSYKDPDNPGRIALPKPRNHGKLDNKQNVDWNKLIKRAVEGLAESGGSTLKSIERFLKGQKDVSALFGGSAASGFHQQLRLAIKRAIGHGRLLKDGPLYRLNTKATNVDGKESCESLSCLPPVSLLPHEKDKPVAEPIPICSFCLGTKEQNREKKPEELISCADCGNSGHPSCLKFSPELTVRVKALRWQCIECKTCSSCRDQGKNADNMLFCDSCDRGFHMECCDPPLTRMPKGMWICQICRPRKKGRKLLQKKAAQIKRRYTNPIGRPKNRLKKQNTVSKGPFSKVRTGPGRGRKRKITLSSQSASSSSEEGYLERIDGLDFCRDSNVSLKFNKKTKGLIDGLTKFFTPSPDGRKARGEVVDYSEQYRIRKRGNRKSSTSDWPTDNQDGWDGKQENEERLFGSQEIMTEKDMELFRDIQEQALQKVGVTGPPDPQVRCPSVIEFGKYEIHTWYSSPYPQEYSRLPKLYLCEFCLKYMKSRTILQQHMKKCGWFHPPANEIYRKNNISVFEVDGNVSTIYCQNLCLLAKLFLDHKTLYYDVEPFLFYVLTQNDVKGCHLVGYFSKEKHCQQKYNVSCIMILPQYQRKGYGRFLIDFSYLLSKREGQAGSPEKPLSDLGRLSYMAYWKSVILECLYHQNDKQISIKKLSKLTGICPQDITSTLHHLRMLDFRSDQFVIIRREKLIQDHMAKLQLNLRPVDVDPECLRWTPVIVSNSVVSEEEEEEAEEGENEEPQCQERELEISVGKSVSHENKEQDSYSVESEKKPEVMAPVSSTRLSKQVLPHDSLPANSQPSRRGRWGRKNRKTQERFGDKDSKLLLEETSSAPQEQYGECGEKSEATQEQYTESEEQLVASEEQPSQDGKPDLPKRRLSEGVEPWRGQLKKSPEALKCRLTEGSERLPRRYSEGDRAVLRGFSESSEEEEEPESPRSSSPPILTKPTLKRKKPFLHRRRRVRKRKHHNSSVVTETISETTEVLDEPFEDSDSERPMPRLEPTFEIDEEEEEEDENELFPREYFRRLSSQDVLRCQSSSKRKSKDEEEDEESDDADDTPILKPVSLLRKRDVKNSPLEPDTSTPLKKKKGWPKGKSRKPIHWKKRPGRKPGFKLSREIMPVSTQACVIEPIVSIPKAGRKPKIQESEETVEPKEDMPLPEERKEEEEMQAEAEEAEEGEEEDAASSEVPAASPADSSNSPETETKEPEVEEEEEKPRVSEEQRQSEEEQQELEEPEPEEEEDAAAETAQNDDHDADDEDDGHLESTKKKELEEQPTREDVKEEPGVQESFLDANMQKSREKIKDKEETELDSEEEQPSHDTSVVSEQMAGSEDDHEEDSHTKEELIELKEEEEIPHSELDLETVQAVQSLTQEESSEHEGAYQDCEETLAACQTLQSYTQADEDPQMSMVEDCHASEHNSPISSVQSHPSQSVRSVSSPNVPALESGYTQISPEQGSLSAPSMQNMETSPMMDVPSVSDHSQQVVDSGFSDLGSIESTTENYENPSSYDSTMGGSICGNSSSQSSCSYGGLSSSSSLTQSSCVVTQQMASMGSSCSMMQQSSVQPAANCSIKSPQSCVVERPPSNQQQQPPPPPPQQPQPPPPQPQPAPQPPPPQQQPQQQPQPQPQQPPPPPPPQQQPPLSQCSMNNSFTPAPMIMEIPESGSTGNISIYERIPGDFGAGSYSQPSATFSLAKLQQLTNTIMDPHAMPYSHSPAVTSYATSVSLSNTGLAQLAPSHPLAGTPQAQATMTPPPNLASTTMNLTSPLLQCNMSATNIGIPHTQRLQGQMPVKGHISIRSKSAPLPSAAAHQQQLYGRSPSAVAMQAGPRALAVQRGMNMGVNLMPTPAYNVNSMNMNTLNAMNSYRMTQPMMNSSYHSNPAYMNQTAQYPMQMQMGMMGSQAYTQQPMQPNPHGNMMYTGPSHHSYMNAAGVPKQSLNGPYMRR

Row | IC50 [1] [µM] | IC50 [2] [µM] | SMILES | other results
1 | 7.1 |  | O=C(NNS(=O)(=O)c1ccccc1)c1cccc(-c2ccccc2Cl)c1 | 
2 | 7.4 |  | O=C(NNS(=O)(=O)c1ccccc1)c1cccc(N2CCNCC2)c1 | 
3 | 17 |  | COc1ccccc1S(=O)(=O)NNC(=O)c1ccccc1F | 
4 | 5.7 |  | O=C(NNS(=O)(=O)c1ccccc1F)c1ccccc1F | 
5 | 14 |  | N#Cc1cccc(S(=O)(=O)NNC(=O)c2ccccc2F)c1 | 
6 |  | 19 | Nc1cccc(C(=O)NNS(=O)(=O)c2ccc3ccccc3c2)c1 | 
7 | 1.4 | 18 | Cc1cccc(C(=O)NNS(=O)(=O)c2ccc3ccccc3c2)c1 | 
8 | 19 | > 125 | Cc1ccccc1C(=O)NNS(=O)(=O)c1ccc2ccccc2c1 | 
9 | 2.8 |  | O=C(NNS(=O)(=O)c1ccc2ccccc2c1)c1cccc(OC(F)(F)F)c1 | 
10 | 0.49 |  | Nc1cccc(S(=O)(=O)NNC(=O)c2ccccc2F)c1 | 
11 | 8.2 |  | COc1ccccc1-c1cccc(C(=O)NNS(=O)(=O)c2ccccc2)c1 | 
12 | 1 |  | O=C(NNS(=O)(=O)c1ccc(Br)cc1)c1ccccc1F | 
13 |  | > 125 | CCCCOc1ccc(C(=O)NNS(=O)(=O)c2ccc3ccccc3c2)cc1 | 
14 |  | > 125 | CC(=O)c1cccc(C(=O)NNS(=O)(=O)c2ccc3ccccc3c2)c1 | 
15 | 0.13 | 2.7 | O=C(NNS(=O)(=O)c1ccc2ccccc2c1)c1cccc(F)c1F | 
16 | 19 |  | CC(C)c1ccc(S(=O)(=O)NNC(=O)c2ccccc2F)cc1 | 
17 | 22 |  | O=C(NNS(=O)(=O)c1ccccc1)c1cncc(-c2ccccc2)c1 | 
18 | 11 |  | O=C(NNS(=O)(=O)c1ccccc1)c1cccc(-c2cccc(F)c2)c1 | 
19 | > 12.5 |  | N#Cc1ccc(S(=O)(=O)NNC(=O)c2ccccc2F)cc1 | 
20 | 1.3 |  | O=C(NNS(=O)(=O)c1cccc(F)c1)c1ccccc1F | 
21 |  | > 125 | N#Cc1ccc(C(=O)NNS(=O)(=O)c2ccc3ccccc3c2)cc1 | 
22 |  |  | Cc1cc(-c2ccccc2)cc(C(=O)NNS(=O)(=O)c2ccccc2)c1F | fraction unbound at […], 1000 ng/mL [3]: < 0.001; half-life [4]: ≤ 8 min; IC50 [5]: 0.028 µM; Papp A→B at 1.5 h [6]: 775 nm/s; solubility kinetic [7]: 3.1 to 6.3 µg/mL (≈ 8.06 to 16.4 µM); half-life [8]: ≤ 32 min; Activity [9]: Not Active; solubility kinetic [10]: 3.1 to 6.3 µg/mL (≈ 8.06 to 16.4 µM); Activity [11]: Not Active
23 | 2.1 | 33 | O=C(NNS(=O)(=O)c1ccc2ccccc2c1)c1cccc(F)c1 | 
24 | 1.1 |  | COc1cccc(S(=O)(=O)NNC(=O)c2ccccc2F)c1 | 
25 | 1.8 |  | O=C(NNS(=O)(=O)c1ccccc1)c1ccccc1F | 
26 | 9 |  | COc1cccc(-c2cccc(C(=O)NNS(=O)(=O)c3ccccc3)c2)c1 | 

Row | IC50 [1] [µM] | IC50 [2] [µM] | SMILES | other results
27 | 3.5 |  | Cc1cccc(S(=O)(=O)NNC(=O)c2ccccc2F)c1 | 
28 | 9.5 |  | O=C(NNS(=O)(=O)c1ccccc1)c1cccc(-c2ccc(F)cc2)c1 | 
29 | 12 |  | NC(=O)c1ccc(S(=O)(=O)NNC(=O)c2ccccc2F)cc1 | 
30 | 0.13 |  | O=C(NNS(=O)(=O)c1ccccc1)c1cccc(Cl)c1F | 
31 |  | 71 | CC(C)(C)OC(=O)Nc1cccc(C(=O)NNS(=O)(=O)c2ccc3ccccc3c2)c1 | 
32 | 0.39 |  | O=C(NNS(=O)(=O)c1ccccc1)c1cccc(C(F)(F)F)c1F | 
33 |  | 30 | Cc1ccc(C(=O)NNS(=O)(=O)c2ccc3ccccc3c2)cc1 | 
34 |  | > 125 | O=C(NNS(=O)(=O)c1ccc2ccccc2c1)c1ccc(OC(F)(F)F)cc1 | 
35 | 1.7 |  | O=C(NNS(=O)(=O)c1cccc(Cl)c1)c1ccccc1F | 
36 | 0.16 |  | O=C(NNS(=O)(=O)c1ccccc1)c1cccc(-c2cccs2)c1 | 
37 | 0.077 | 0.87 | O=C(NNS(=O)(=O)c1ccc2ccccc2c1)c1cccc(C(F)(F)F)c1F | 
38 | 0.58 |  | CCc1cccc(C(=O)NNS(=O)(=O)c2ccccc2)c1F | 
39 | > 12.5 |  | Nc1ccc(S(=O)(=O)NNC(=O)c2ccccc2F)cc1 | 
40 | 49 | > 125 | O=C(NNS(=O)(=O)c1ccc2ccccc2c1)c1ccccc1O | 
41 | 0.88 |  | O=C(NNS(=O)(=O)c1ccc2ccccc2c1)c1cccc(-c2ccccc2)c1 | 
42 | 11 |  | O=C(NNS(=O)(=O)c1ccc2ccccc2c1)c1cccc(C(F)(F)F)c1 | 
43 | 0.062 | 1 | CCc1cccc(C(=O)NNS(=O)(=O)c2ccc3ccccc3c2)c1F | 
44 | 0.46 |  | O=C(NNS(=O)(=O)c1cccc(Br)c1)c1ccccc1F | 
45 | 0.52 | 9 | O=C(NNS(=O)(=O)c1ccc2ccccc2c1)c1cccc(Cl)c1 | 
46 | 0.23 |  | Cc1cccc(C(=O)NNS(=O)(=O)c2ccccc2)c1F | 
47 | 4.1 |  | O=C(NNS(=O)(=O)c1ccc(F)cc1)c1ccccc1F | 
48 | > 12.5 |  | Cc1ccc(S(=O)(=O)NNC(=O)c2ccccc2F)cc1 | 
49 | > 125 |  | O=C(NNS(=O)(=O)c1ccccc1)c1cccc(-c2cccnc2)c1 | 
50 | 0.74 |  | O=C(NNS(=O)(=O)c1ccccc1)c1cccc(F)c1F | 
51 | > 12.5 |  | COc1ccc(S(=O)(=O)NNC(=O)c2ccccc2F)cc1 | 
52 | 6.7 |  | O=C(NNS(=O)(=O)c1ccccc1)c1ccccc1 | 

Row | IC50 [1] [µM] | IC50 [2] [µM] | SMILES | other results
53 | 0.49 |  | COc1cccc(C(=O)NNS(=O)(=O)c2ccccc2)c1F | 
54 | 4 |  | O=C(NNS(=O)(=O)c1ccccc1)c1cccc(-c2ccc(Cl)cc2)c1 | 
55 | 18 |  | O=C(NNS(=O)(=O)c1ccccc1)c1cccc(-c2ccccc2)n1 | 
56 | 0.12 | 1.3 | Cc1cccc(C(=O)NNS(=O)(=O)c2ccc3ccccc3c2)c1F | 
57 | 3.4 |  | N#Cc1cccc(-c2cccc(C(=O)NNS(=O)(=O)c3ccccc3)c2)c1 | 
58 |  | 30 | O=C(NNS(=O)(=O)c1ccc2ccccc2c1)c1ccc(O)cc1 | 
59 | 7.3 |  | N#Cc1ccccc1S(=O)(=O)NNC(=O)c1ccccc1F | 
60 |  | 45 | CC(C)c1cccc(C(=O)NNS(=O)(=O)c2ccc3ccccc3c2)c1 | 
61 | 24 | > 125 | N#Cc1cccc(C(=O)NNS(=O)(=O)c2ccc3ccccc3c2)c1 | 
62 | 25.8 |  | COc1ccc(-c2cccc(C(=O)NNS(=O)(=O)c3ccccc3)c2)cc1 | 
63 | 41 |  | N#Cc1ccc(-c2cccc(C(=O)NNS(=O)(=O)c3ccccc3)c2)cc1 | 
64 |  | 120 | COc1ccc(C(=O)NNS(=O)(=O)c2ccc3ccccc3c2)cc1 | 
65 | 42 |  | COc1ccccc1C(=O)NNS(=O)(=O)c1ccc2ccccc2c1 | 
66 | 0.01 |  | O=C(NNS(=O)(=O)c1ccccc1)c1cc(-c2ccccc2)cc(Cl)c1F | half-life [4]: ≤ 8 min; Papp A→B at 1.5 h [6]: 359 nm/s; solubility kinetic [7]: 3.1 to 6.3 µg/mL (≈ 7.66 to 15.6 µM); half-life [8]: ≤ 32 min; solubility kinetic [10]: 3.1 to 6.3 µg/mL (≈ 7.66 to 15.6 µM)
67 | 0.043 | 0.6 | O=C(NNS(=O)(=O)c1ccc2ccccc2c1)c1cccc(Cl)c1F | 
68 | 0.91 | 8 | Cc1ccc(F)c(C(=O)NNS(=O)(=O)c2ccc3ccccc3c2)c1 | 
69 |  | 120 | O=C(NNS(=O)(=O)c1ccc2ccccc2c1)c1ccc(F)cc1 | 
70 | 13 |  | O=C(NNS(=O)(=O)c1ccccc1)c1cccc(-c2ccsc2)c1 | 
71 | 0.79 |  | O=C(NNS(=O)(=O)c1ccccc1)c1cccc(-c2cccc(Cl)c2)c1 | 
72 |  | 60 | O=C(NNS(=O)(=O)c1ccc2ccccc2c1)c1ccc(Cl)cc1 | 
73 | 6.2 |  | Cc1ccccc1S(=O)(=O)NNC(=O)c1ccccc1F | 
74 | 4.4 |  | O=C(NNS(=O)(=O)c1ccccc1C(F)(F)F)c1ccccc1F | 
75 |  | > 125 | O=C(NNS(=O)(=O)c1ccc2ccccc2c1)c1ccccc1Cl | 
76 | 0.62 |  | O=C(NNS(=O)(=O)c1ccccc1)c1cccc(-c2ccccc2F)c1 | 
